Consider 12 compounds from patent US20150284380A1, “NOVEL HETEROCYCLIC COMPOUNDS AS PEST CONTROL AGENTS” (BAYER CROPSCIENCE AG, priority 2012, published 2015).

In series [1] the test system is green peach aphid (Myzus persicae). Put plainly: Myzus persicae spray test. It counts as in vivo. Conditions: foliar, 144 h, read-out: efficacy in % (aphids killed). On the procedure:
Myzus persicae—Spray Test
Solvent: 78 parts by weight of acetone • • 1.5 parts by weight of dimethylformamide
Emulsifier: 0.5 parts by weight of alkylaryl polyglycol ether
To produce a suitable active compound formulation, 1 part by weight of active compound is mixed with the stated amounts of solvent and emulsifier, and the concentrate is diluted with emulsifier-containing water to the desired concentration.
Discs of Chinese cabbage leaves (Brassica pekinensis) infested by all stages of the green peach aphid (Myzus persicae) are sprayed with an active compound formulation of the desired concentration.
After 6 days, the efficacy in % is determined. 100% means that all the aphids have been killed; 0% means that none of the aphids have been killed.

The nature of series [2]: logP by HPLC-MS (HCOOH or neutral).
Where [3] appears, read: application rate 500 g/ha, spray on infested Chinese cabbage leaf discs, after 6 days.
Setting [4] is: HCOOH (formic acid), logP (HCOOH), HPLC-MS, HCOOH.
Setting [5] is: logP (neutral), HPLC-MS, neutral.

Like-named read-outs stand apart in the source and are kept apart here.

For `c1cnc(-c2cccc(-c3cnc(-c4cncs4)s3)n2)nc1` [Example 1, 5-[6-(Pyrimidin-2-yl)pyridin-2-yl]-2,5′-bi-1,3-thiazole], the pest or weed control at 500 g/ha in series [1] (setting [3]) is 80%. Moreover, the chromatographic logP in series [2] (setting [4]) came to 1.76. Also, in series [2] (HPLC-MS, HCOOH), the “logP (HCOOH)” value is given as 1.74.
As for `FC(F)(F)c1cccc(-c2cnc(-c3cnsc3)s2)n1` [Example 11], the pest or weed control at 500 g/ha in series [1] (setting [3]) came to 90%. The compound also displayed a chromatographic logP in series [2] (setting [4]) of 3.13.
With `Cn1cc(-n2cc(-c3cccc(-c4ncccn4)n3)cn2)cn1` [Example 7], the pest or weed control at 500 g/ha in series [1] (setting [3]) amounted to 100%. In series [2] (setting [4]), the chromatographic logP worked out at 1.37.
`c1cnc(-c2cccc(-c3cnn(-c4cnccn4)c3)n2)nc1` [Example 6]: the pest or weed control at 500 g/ha in series [1] (setting [3]) stood at 100%. Besides, the chromatographic logP in series [2] (setting [4]) was found to be 1.65.
For the compound `c1cnc(-c2cccc(-c3cnc(-c4ccnnc4)s3)n2)nc1` [Example 3, 4-{5-[6-(Pyrimidin-2-yl)pyridin-2-yl]-1,3-thiazol-2-yl}pyridazine], the pest or weed control at 500 g/ha in series [1] (setting [3]) was found to be 90%. Also, the chromatographic logP in series [2] (setting [4]) amounted to 1.37; in series [2] (neutral, logP (neutral), HPLC-MS), 1.4.
As for `c1cnc(-c2cccc(-c3cnc(-c4cnsc4)s3)n2)nc1` [Example 10], the chromatographic logP in series [2] (setting [4]) stood at 1.91.
Take `CS(=O)(=O)NC(=O)c1cccc(-c2cnc(-c3cnsc3)s2)n1` [Example 12]: the pest or weed control at 500 g/ha in series [1] (setting [3]) is 90%. Moreover, the chromatographic logP in series [2] (setting [4]) was 1.9.
`Cn1cc(-c2ncc(-c3cccc(-c4ncccn4)n3)s2)cn1` [Example 8, 2-{6-[2-(1-Methyl-1H-pyrazol-4-yl)-1,3-thiazol-5-yl]pyridin-2-yl}pyrimidine]: the pest or weed control at 500 g/ha in series [1] (setting [3]) amounted to 100%. For the same compound, the chromatographic logP in series [2] (setting [5]) came out at 1.56.
For `c1cnc(-c2cccc(-c3cnn(-c4cnsc4)c3)n2)nc1` [Example 2, 2-{6-[1-(isothiazol-4-yl)-1H-pyrazol-4-yl]pyridin-2-yl}pyrimidine], the figures for the chromatographic logP in series [2] (setting [4]) and in series [2] (setting [5]) were 1.65 and 1.64, respectively.
With `c1cnc(-c2cccc(-c3cnc(-c4cn[nH]c4)s3)n2)nc1` [Example 9, 2-{6-[2-(1H-Pyrazol-4-yl)-1,3-thiazol-5-yl]pyridin-2-yl}pyrimidine], the pest or weed control at 500 g/ha in series [1] (in Brassica rapa) was determined as 90%. For the same compound, the chromatographic logP in series [2] stood at 1.35.
On to `c1cnc(-c2cccc(-c3cnn(-c4ccnnc4)c3)n2)nc1` [Example 5], for which, in series [1] (setting [3]), the pest or weed control at 500 g/ha was found to be 90%. Further, the chromatographic logP in series [2] (setting [4]) is 1.23.
Regarding `CS(=O)(=O)NC(=O)c1cccc(-c2cnc(-c3ccnnc3)s2)n1` [Example 4], the pest or weed control at 500 g/ha in series [1] (setting [3]) turned out to be 100%. Moreover, the chromatographic logP in series [2] (setting [4]) was 1.36.
